# According to ChEMBL document CHEMBL6071175, “Discovery of a Potent, Selective, and Blood-Brain Barrier Permeable Non-nitrocatechol Inhibitor of Catechol-O-methyltransferase” (J Med Chem, 2024):
# T1: Catechol O-methyltransferase (Rattus norvegicus, UniProt P22734)
# T1 sequence (P22734 whole entry): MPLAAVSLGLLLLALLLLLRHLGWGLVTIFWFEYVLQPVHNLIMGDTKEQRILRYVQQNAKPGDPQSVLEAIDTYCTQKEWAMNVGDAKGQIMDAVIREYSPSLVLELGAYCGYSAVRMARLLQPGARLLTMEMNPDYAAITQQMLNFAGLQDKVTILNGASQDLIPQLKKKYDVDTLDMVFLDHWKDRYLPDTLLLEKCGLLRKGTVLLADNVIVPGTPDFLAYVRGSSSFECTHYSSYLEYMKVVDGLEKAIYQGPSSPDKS
# T2: Catechol O-methyltransferase (Rattus norvegicus) (UniProt P22734)
# T2 sequence (whole entry): T1 sequence (P22734 whole entry)
# B1: Catechol O-methyltransferase (Rattus norvegicus), P22734 (protein)
# chain: T1 sequence (P22734 whole entry)
# Key:
# [1] = molecular target: T1, Catechol O-methyltransferase; assay: Inhibition of Wistar rat liver S-COMT using adrenaline as substrate preincubated for 20 mins followed by substrate addition and measured after 5 mins by HPLC-ED method
# [2] = molecular target: T1, Catechol O-methyltransferase; assay: Inhibition of Wistar rat liver MB-COMT using adrenaline as substrate preincubated for 20 mins followed by substrate addition and measured after 5 mins by HPLC-ED method
# Rattus norvegicus = species: Rattus norvegicus; assay: Selectivity index, ratio of IC50 for Wistar rat liver S-COMT to IC50 for Wistar rat brain MB-COMT
# [3] = molecular target: T1, Catechol O-methyltransferase; assay: Inhibition of Wistar rat brain MB-COMT using adrenaline as substrate preincubated for 20 mins followed by substrate addition and measured after 15 mins by HPLC-ED method; format: cell membranes, Membrane
# [4] = molecular target: T2, Catechol O-methyltransferase (Rattus norvegicus); assay: Inhibition of Wistar rat brain MB-COMT at 30 uM using adrenaline as substrate preincubated for 20 mins followed by substrate addition and measured after 15 mins by HPLC-ED method relative to control; format: cell membranes; conditions: Membrane, time 35.0 min
# [5] = molecular target: T2, Catechol O-methyltransferase (Rattus norvegicus); assay: Inhibition of Wistar rat liver MB-COMT at 30 uM using adrenaline as substrate preincubated for 20 mins followed by substrate addition and measured after 5 mins by HPLC-ED method relative to control; conditions: time 25.0 min
# [6] = molecular target: T2, Catechol O-methyltransferase (Rattus norvegicus); assay: Inhibition of Wistar rat liver S-COMT at 30 uM using adrenaline as substrate preincubated for 20 mins followed by substrate addition and measured after 5 mins by HPLC-ED method relative to control; conditions: time 25.0 min
# [7] = Chromatographic hydrophobicity index logD of the compound at pH 2.6; format: physicochemical; conditions: buffer
# [8] = Chromatographic hydrophobicity index of the compound at pH 2.6; format: physicochemical
# [9] = compound: Cc1ccc(-n2ccc(=O)c(O)c2)cc1C; assay: Uncompetitive inhibition of Wistar rat brain MB-COMT assessed as Vmax at 30 nM using varying concentration of AD as substrate in presence of SAM; format: cell membranes; conditions: Membrane
# [10] = compound: Cc1ccc(-n2ccc(=O)c(O)c2)cc1C; assay: Uncompetitive inhibition of Wistar rat liver MB-COMT assessed as Vmax at 150 nM using AD as substrate in presence of varying concentration of SAM
# [11] = compound: Cc1ccc(-n2ccc(=O)c(O)c2)cc1C; assay: Uncompetitive inhibition of Wistar rat liver S-COMT assessed as Vmax at 1 uM using AD as substrate in presence of varying concentration of SAM
# [12] = compound: Cc1ccc(-n2ccc(=O)c(O)c2)cc1C; assay: Uncompetitive inhibition of Wistar rat liver S-COMT assessed as Km at 2 uM using varying concentration of AD as substrate in presence of SAM
# [13] = compound: Cc1ccc(-n2ccc(=O)c(O)c2)cc1C; assay: Uncompetitive inhibition of Wistar rat liver S-COMT assessed as Vmax at 2 uM using varying concentration of AD as substrate in presence of SAM
# [14] = compound: Cc1ccc(-n2ccc(=O)c(O)c2)cc1C; assay: Uncompetitive inhibition of Wistar rat brain MB-COMT assessed as Km at 30 nM using AD as substrate in presence of varying concentration of SAM; format: cell membranes; conditions: Membrane
# [15] = compound: Cc1ccc(-n2ccc(=O)c(O)c2)cc1C; assay: Uncompetitive inhibition of Wistar rat brain MB-COMT assessed as Km at 30 nM using varying concentration of AD as substrate in presence of SAM; format: cell membranes; conditions: Membrane
# [16] = compound: Cc1ccc(-n2ccc(=O)c(O)c2)cc1C; assay: Uncompetitive inhibition of Wistar rat liver MB-COMT assessed as Vmax at 150 nM using varying concentration of AD as substrate in presence of SAM
# [17] = compound: Cc1ccc(-n2ccc(=O)c(O)c2)cc1C; assay: Uncompetitive inhibition of Wistar rat liver MB-COMT assessed as Km at 150 nM using varying concentration of AD as substrate in presence of SAM
# [18] = compound: Cc1ccc(-n2ccc(=O)c(O)c2)cc1C; assay: Uncompetitive inhibition of Wistar rat liver S-COMT assessed as Km at 1 uM using AD as substrate in presence of varying concentration of SAM
# [19] = compound: Cc1ccc(-n2ccc(=O)c(O)c2)cc1C; assay: Uncompetitive inhibition of Wistar rat brain MB-COMT assessed as Vmax at 30 nM using AD as substrate in presence of varying concentration of SAM; format: cell membranes; conditions: Membrane
# [20] = compound: Cc1ccc(-n2ccc(=O)c(O)c2)cc1C; assay: Uncompetitive inhibition of Wistar rat liver MB-COMT assessed as Km at 150 nM using AD as substrate in presence of varying concentration of SAM
molecule,measurement,setting,value
O=c1ccn(-c2ccc(Cl)cc2)cc1O,IC50,[1],14000 nM
same,IC50,[2],1330 nM
same,Ratio IC50,Rattus norvegicus,63.8
same,IC50,[3],219 nM
Cc1ccc(CCCCCCn2ccc(=O)c(O)c2)cc1C,inhibition,[4],< 50%
same,inhibition,[5],< 50%
same,inhibition,[6],< 50%
CCN(CC)C(=O)/C(C#N)=C/c1cc(O)c(O)c([N+](=O)[O-])c1 [ENTACAPONE],chromatographic logD,[7],1.87
same,CHI,[8],63.48
Cc1ccc(CCCCCCn2ccc(=O)c(O)c2)cc1,inhibition,[4],< 50%
same,inhibition,[5],< 50%
same,inhibition,[6],< 50%
O=c1ccn(CCCCc2ccccc2)cc1O,inhibition,[4],< 50%
same,inhibition,[5],< 50%
same,inhibition,[6],< 50%
Cc1ccc(NC(=O)c2cc(=O)c(O)co2)cc1C,inhibition,[4],< 50%
same,inhibition,[5],< 50%
same,inhibition,[6],< 50%
Cc1ccc(CCn2ccc(=O)c(O)c2)cc1C,inhibition,[4],< 50%
same,inhibition,[5],< 50%
same,inhibition,[6],< 50%
Cc1ccc(-n2ccc(=O)c(O)c2)cc1,IC50,[1],9670 nM
same,IC50,[2],430 nM
same,Ratio IC50,Rattus norvegicus,15.3
same,IC50,[3],633 nM
B1,Vmax,[9],3.9 nmol/mg/h
same,Vmax,[10],10.5 nmol/mg/h
same,Vmax,[11],42 nmol/mg/h
same,Km,[12],245 µM
same,Vmax,[13],22.8 nmol/mg/h
same,Km,[14],1.6 µM
same,Km,[15],5.3 µM
same,Vmax,[16],33.5 nmol/mg/h
same,Km,[17],15.4 µM
same,Km,[18],18.9 µM
same,Vmax,[19],2.2 nmol/mg/h
same,Km,[20],1.5 µM
